Experimental data taken from ChEMBL document CHEMBL5113463, “Discovery and preclinical evaluations of JBD0131, a novel nitrodihydro-imidazooxazole anti-tuberculosis agent” (Bioorg Med Chem Lett, 2022).
Converted amounts (≈) assume the structure as drawn.

What was measured:
[1] = system: Mycobacterium tuberculosis; test: Antimycobacterial activity against clinical isolate drug susceptible Mycobacterium tuberculosis H37Rv assessed as bacterial growth inhibition; type: functional
[2] = system: Mycobacterium tuberculosis; test: Antimycobacterial activity against Mycobacterium tuberculosis H37Rv assessed as bacterial growth inhibition incubated for 7 days by MABA assay; type: functional; conditions: 168 h, time 7 day
[3] = Cytotoxicity against African green monkey vero cells assessed as reduction in cell viability; type: toxicity, cell-based; conditions: chlorocebus sabaeus
[4] = Clearance in CD-1 mouse at 0.6 mg/kg, iv; type: ADME, organism-based; conditions: in vivo
[5] = Volume of distribution in CD-1 mouse at 0.6 mg/kg, iv; type: ADME, organism-based; conditions: in vivo
[6] = Half life in CD-1 mouse at 0.6 mg/kg, iv; type: ADME, organism-based; conditions: in vivo
[7] = Cmax in CD-1 mouse at 5 mg/kg, po; type: ADME, organism-based; set-up: dose 5 mg/kg, route po; conditions: in vivo
[8] = AUC (0-last) in CD-1 mouse at 5 mg/kg, po; type: ADME, organism-based; set-up: dose 5 mg/kg, route po; conditions: CD-1, mouse, in vivo
[9] = Oral bioavailability in CD-1 mouse at 5 mg/kg; type: ADME, organism-based; conditions: CD-1, mouse, in vivo
[10] = Metabolic stability in human liver microsomes assessed as half life; type: ADME, Microsome
[11] = Metabolic stability in rat liver microsomes assessed as half life; type: ADME, Microsome
[12] = Metabolic stability in mouse liver microsomes assessed as half life; type: ADME, Microsome
[13] = system: Mycobacterium tuberculosis; test: Antimycobacterial activity against Mycobacterium tuberculosis H37Rv assessed as bacterial growth inhibition incubated for 10 days under hypoxic condition followed by 28 hrs incubation under normoxic condition by Low-Oxygen-Recovery Assay; type: functional; conditions: 264 h, time 11 day
[14] = molecular target: Voltage-gated inwardly rectifying potassium channel KCNH2 (Homo sapiens, UniProt Q12809); test: Inhibition of human ERG; type: toxicity
[15] = Metabolic stability in human assessed as half life; type: ADME

Sequence of Voltage-gated inwardly rectifying potassium channel KCNH2 (Q12809 whole entry): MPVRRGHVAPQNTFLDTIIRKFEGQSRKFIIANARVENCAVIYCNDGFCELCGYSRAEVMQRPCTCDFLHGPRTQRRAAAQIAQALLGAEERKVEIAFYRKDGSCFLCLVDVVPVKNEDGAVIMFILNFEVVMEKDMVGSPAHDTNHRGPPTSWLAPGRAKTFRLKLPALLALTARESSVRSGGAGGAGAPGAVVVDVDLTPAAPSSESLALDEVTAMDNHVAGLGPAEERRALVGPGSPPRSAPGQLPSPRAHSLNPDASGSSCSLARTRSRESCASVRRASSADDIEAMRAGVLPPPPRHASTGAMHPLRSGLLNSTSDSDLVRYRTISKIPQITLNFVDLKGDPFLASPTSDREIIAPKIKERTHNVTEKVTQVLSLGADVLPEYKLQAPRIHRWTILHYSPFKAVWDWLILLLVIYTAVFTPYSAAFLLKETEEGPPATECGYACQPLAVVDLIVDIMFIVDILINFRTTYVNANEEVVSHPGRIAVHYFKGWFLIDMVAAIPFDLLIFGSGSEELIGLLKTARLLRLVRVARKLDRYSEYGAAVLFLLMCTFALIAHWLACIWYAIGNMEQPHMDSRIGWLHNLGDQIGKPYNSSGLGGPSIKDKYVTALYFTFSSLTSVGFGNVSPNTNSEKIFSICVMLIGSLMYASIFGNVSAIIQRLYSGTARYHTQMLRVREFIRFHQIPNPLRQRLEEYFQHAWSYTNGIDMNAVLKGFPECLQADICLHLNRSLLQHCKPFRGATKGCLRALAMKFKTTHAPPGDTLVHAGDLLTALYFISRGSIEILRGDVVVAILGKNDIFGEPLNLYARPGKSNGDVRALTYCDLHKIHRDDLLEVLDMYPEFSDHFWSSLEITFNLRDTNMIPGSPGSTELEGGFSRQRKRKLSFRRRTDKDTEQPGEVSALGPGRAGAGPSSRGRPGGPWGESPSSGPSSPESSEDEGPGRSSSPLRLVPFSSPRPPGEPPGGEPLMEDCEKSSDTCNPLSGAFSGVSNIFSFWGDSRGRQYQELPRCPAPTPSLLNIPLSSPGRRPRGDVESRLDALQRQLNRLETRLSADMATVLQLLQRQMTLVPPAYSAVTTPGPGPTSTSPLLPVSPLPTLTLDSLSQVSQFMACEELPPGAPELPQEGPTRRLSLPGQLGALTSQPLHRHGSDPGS

Compound	MIC [2] [µg/mL]	CC50 [3] [µg/mL]	half-life [10] [min]	half-life [11] [min]	half-life [12] [min]	MIC [13] [µg/mL]	also measured
NC[C@H]1O[C@H](O[C@H]2[C@H](O)[C@@H](O[C@H]3O[C@H](CO)[C@@H](O)[C@H](N)[C@H]3O)[C@H](N)C[C@@H]2N)[C@H](O)[C@@H](O)[C@@H]1O [KANAMYCIN]	–	–	–	–	–	–	MIC50 [1]: 1.22 µg/mL (≈ 2.52 µM); MIC90 [1]: 1.91 µg/mL (≈ 3.94 µM)
C[C@]1(CN2Cc3nc(-c4ncc(F)cc4F)sc3C2)Cn2cc([N+](=O)[O-])nc2O1	0.06 (≈ 0.143 µM)	> 32	–	–	–	–	clearance [4]: 13.8 mL/min/kg; Vd [5]: 1.57 L/kg; half-life [6]: 84 min; Cmax [7]: 1010 ng/mL; AUC(0-t) [8]: 4990 ng·h/mL; bioavailability [9]: 57.9%
C[C@]1(CN2Cc3nc(-c4ccc(F)cc4)oc3C2)Cn2cc([N+](=O)[O-])nc2O1	0.021 (≈ 0.0545 µM)	> 32	59	39	43	–	–
C[C@]1(CN2CCc3nc(-c4ccc(F)cc4)ccc3C2)Cn2cc([N+](=O)[O-])nc2O1	< 0.031	> 32	25	6	22	4.83 (≈ 11.8 µM)	–
C[C@]1(COc2ccc(N3CCC(Oc4ccc(OC(F)(F)F)cc4)CC3)cc2)CN=C(N)O1 [DM-6705]	–	–	–	–	–	–	IC50 [14]: 82 nM; half-life [15]: 122 h
C[C@]1(CN2CCc3nc(-c4ccc(F)cc4)sc3CC2)Cn2cc([N+](=O)[O-])nc2O1	0.03 (≈ 0.0699 µM)	> 32	15	8	7	> 8	–
